Experimental data: patent US20240251801A1, “COMPOSITIONS AND METHODS FOR IMPROVING PLANT HEALTH AND CONTROLLING PLANT DISEASE” (AgBiome, Inc., priority 2021, published 2024)

Experiments:
[1] = system: Phakopsora pachyrhizi; assay: Soybean leaf disk assay, control of Asian soybean rust; format: in vivo; conditions: soybean leaf disks, strain 1×10^8 CFU/mL, azoxystrobin 0.5 ppm
Method: For detached-leaf assays performed in the following examples, bacterial strains stored in a freezer (−80° C.) were each streaked onto Luria Bertani (LB) agar (25 g LB broth and 15 g agar per liter of deionized water) in an 8.5-cm diameter plastic plate. A single colony from the plate was picked and placed in 50 ml of either LB liquid broth or a liquid broth consisting of NaCl (5 g), tryptone (10 g), nutrient broth (8 g), CaCl2 (0.14 mM), MgCl2·6H2O (0.2 mM), and MnCl2·4H2O (0.01 mM) per liter of deionized water in a 250-ml flask. Calcium chloride (CaCl2), MgCl2, and MnCl2 were filtered sterilized using 0.22 μm vacuum filter and were then added to NaCl, tryptone, nutrient broth (which were autoclaved together). Cultures were harvested after 48 h by pelleting cells and re-suspending to original volume in sterile H2O. Colony forming units (CFU/mL) were determined using standard dilution plate count method, and plates were inspected for signs of contamination. Sterile distilled water was added to achieve a final concentration needed in detached-leaf or growth chamber strain evaluations.
The susceptible soybean cultivar Williams 82 was used in strain evaluation using the detached-leaf technique (Twizeyimana and Hartman, 2010). […]
Data recorded were numbers of uredinia in 1-cm diameter circle recorded 14 days after inoculation. […]

[2] = system: Phakopsora pachyrhizi; assay: Soybean leaf disc assay with wettable powder formulations, control of Asian soybean rust; format: in vivo; conditions: soybean leaf discs, 150 μL, azoxystrobin 0.25 ppm as control
Method: For the tray drying method, 829 grams of cell paste obtained from a liquid culture of ATP15329 was mixed with 18.24 g of glycerol and 72.95 g of microcel E using a food processor. Half of the cell paste was dried at 40° C. to a water activity of less than 0.30, at which time it contained 3.53E11 CFU/g. The other half was dried at 25° C. and 50% RH to a water activity of less than 0.6, at which time it contained 4.75E11 CFU/g. The dried powder formulation was stored in heat sealed mylar pouches at 4° C.
For the spray drying method, 200 grams of cell paste obtained from a liquid culture of ATP15329 was mixed with 22 g of skim milk powder using an emulsion blender. This material was spray dried at outlet temperature of 70° C., at which time it contained 7.86E10 CFU/g. The dried powder formulation was stored in heat sealed mylar pouches at 4° C.
This evaluation followed the protocol used in Example 5. Briefly, leaf disks were each sprayed with 150 μL of different formulations of the bacterial strain AIP015329, azoxystrobin (0.25 ppm) (fungicide control) on the abaxial surface with 150 μl using a fingertip sprayer (Container & Packaging Supply, Eagle, ID) fitted to a 15 mL conical centrifuge tube. Leaf disks were placed adaxial side down on saturated 20×20 cm filter paper in a plastic container (Blister Box 20×20 cm, Placon, Madison, WI); two filter papers were used per box. Boxes with leaf disks were incubated at room temperature in the dark, 24 hours later, leaf disks in the box were inoculated as described earlier. Inoculated and non-inoculated/not treated controls were added. After inoculation, boxes were maintained and incubated as described in the first-round evaluations.
Data recorded were numbers of uredinia in 1-cm diameter circle recorded 14 days after inoculation. […] Data were analyzed using analysis of variance (ANOVA) in PROC GLM of SAS (version 9.4; SAS Institute Inc., Cary, NC) and significant differences (P<0.05) were observed among treatments (Table 9).

CO/C=C(/C(=O)OC)c1ccccc1Oc1cc(Oc2ccccc2C#N)ncn1 [Azoxystrobin, azoxystrobin]
Disease Control (%) Confirmation ([1]; confirmation): 95.7 (a) % | Disease Control (%) Primary Screen ([1]; uredinia counted 14 days after inoculation): 99.8 (a) % | Disease Control (%) Spray dry ([2]; spray dried formulation of the strain, 14 days after inoculation): 100 (a) % | Disease Control (%) Tray dry Dried at 25° C. ([2]; tray dried formulation dried at 25° C.): 100 (a) % | Disease Control (%) Tray dry Dried at 40° C. ([2]; tray dried formulation dried at 40° C.): 100 (a) %
